The source made the active and inactive calls. The rule behind the calls is not given here.

Format in all cases: cell-based
Assay [1] deals with T1, Histone-lysine N-methyltransferase EHMT2 (Homo sapiens) (UniProt Q96KQ7).
T1 sequence (whole entry): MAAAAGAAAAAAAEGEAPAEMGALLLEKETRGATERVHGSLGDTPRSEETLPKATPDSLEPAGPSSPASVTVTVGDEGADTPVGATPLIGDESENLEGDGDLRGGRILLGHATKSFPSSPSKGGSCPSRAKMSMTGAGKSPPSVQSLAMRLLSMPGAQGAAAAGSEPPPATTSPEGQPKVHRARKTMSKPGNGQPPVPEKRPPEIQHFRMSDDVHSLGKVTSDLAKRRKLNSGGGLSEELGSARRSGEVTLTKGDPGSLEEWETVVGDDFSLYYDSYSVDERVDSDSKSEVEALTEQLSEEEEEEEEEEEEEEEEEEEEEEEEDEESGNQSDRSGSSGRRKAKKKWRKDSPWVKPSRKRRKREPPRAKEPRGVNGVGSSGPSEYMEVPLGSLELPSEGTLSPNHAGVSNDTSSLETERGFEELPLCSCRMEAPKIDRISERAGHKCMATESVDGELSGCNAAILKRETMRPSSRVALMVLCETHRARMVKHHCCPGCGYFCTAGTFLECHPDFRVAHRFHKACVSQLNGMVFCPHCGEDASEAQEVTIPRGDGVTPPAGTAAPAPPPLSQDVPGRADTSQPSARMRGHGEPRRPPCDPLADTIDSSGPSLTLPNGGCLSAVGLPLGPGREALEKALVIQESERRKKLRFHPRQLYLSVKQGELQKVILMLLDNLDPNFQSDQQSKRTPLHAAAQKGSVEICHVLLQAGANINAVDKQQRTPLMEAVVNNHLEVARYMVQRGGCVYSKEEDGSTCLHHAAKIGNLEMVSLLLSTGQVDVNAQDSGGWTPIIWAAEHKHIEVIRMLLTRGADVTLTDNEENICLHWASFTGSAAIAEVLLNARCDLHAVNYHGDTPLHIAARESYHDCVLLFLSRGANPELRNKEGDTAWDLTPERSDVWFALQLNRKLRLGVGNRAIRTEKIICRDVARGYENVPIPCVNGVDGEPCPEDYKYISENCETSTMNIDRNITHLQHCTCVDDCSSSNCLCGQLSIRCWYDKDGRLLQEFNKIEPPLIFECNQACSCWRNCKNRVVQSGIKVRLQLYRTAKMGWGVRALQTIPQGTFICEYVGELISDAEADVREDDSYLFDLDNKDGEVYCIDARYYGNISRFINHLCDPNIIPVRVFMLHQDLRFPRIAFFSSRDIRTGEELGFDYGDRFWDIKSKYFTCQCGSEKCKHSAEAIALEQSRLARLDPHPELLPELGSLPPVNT
Nature of the assay: Inhibition of G9a in human SK-MEL-2 cells expressing NRAS Q61R and wild-type BRAF at 100-300 nM relative to control.

Assay [2] deals with T2, Inactive serine/threonine-protein kinase 19 (Homo sapiens) (UniProt P49842).
T2 sequence (whole entry): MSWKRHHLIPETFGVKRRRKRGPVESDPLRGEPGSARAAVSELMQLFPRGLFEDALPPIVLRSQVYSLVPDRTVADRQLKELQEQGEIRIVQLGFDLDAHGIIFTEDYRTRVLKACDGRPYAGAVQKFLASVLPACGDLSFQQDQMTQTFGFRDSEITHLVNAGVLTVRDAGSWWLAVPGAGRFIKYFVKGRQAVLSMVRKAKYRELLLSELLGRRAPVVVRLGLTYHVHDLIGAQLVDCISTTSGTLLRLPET
As to the kind of experiment: Inhibition of STK19 in human UACC62 cells expressing wild-type NRAS and BRAF V600E mutant at 1-3 uM assessed as PI3K signaling relative to control. The settings on record: UACC-62.

For assay [3], the target named is T2, Inactive serine/threonine-protein kinase 19 (Homo sapiens). Nature of the assay: Inhibition of STK19 in human SK-MEL-2 cells expressing NRAS Q61R and wild-type BRAF at 1-3 uM assessed as NRAS signaling relative to control.

Take `COc1cc2nc(NC3CC3)nc(NC3CCN(C(C)C)CC3)c2cc1OC.O=C(O)C(F)(F)F`: the inhibition result in assay [1] and in assay [2] was “inactive” in each case. The inhibition result in assay [3] was “Active”.

Source of the values: ChEMBL document CHEMBL4804283, “Stk19 inhibitors for treatment of cancer” (2020).
